Measurements taken from patent US9126060B2, “Cosmetic use of geranylgeranyl-2-propanol” (SEDERMA, priority 2010, dated 2015).

What was measured:
human melanocytes = assay: Melanin content of human melanocytes; assay type: cell-based; conditions: 0.03%; positive control
Experimental: (§1) Principle: Human melanocytes are seeded and placed in contact with the GGP for 5 days. After incubation, the residual tyrosinase activity and total melanin content were measured in cell homogenates, and then divided by the number of cells (melanin) or to the protein amount (tyrosinase).

tyrosinase = biological target: T1, tyrosinase (Homo sapiens, UniProt P14679); assay: Residual tyrosinase activity in human melanocytes; assay type: cell-based; conditions: 0.03%; positive control
T1 construct: endogenous in cells; host or cells: human melanocytes
T1 sequence (P14679 19-529): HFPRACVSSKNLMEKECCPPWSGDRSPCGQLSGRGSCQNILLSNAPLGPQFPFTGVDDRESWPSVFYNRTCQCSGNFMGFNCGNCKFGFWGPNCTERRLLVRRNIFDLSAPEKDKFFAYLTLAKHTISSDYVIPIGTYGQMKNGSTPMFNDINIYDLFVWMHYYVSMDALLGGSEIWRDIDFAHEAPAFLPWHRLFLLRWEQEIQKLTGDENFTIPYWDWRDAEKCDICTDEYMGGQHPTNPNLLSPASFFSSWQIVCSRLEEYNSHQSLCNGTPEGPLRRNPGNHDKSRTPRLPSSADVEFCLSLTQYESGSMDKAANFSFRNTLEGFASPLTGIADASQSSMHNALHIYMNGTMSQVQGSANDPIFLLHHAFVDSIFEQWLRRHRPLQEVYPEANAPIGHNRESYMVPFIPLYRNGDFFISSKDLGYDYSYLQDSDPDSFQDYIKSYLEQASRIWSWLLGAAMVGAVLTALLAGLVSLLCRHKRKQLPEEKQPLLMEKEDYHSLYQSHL
Experimental: as §1

fibroblasts (FHN) = assay: Intracellular peroxide level (DCFH-DA probe) in fibroblasts after SIPS; assay type: cell-based, human; conditions: 120 ppm
Experimental: Principle: Fibroblasts at confluence contacted or not with the GGP for several days, are subjected to oxidative stress by hydrogen peroxide in the presence or absence of the GGP. This stress is intended to induce premature senescence in cells.
After this initial stress, the cells were detached from the support and returned to culture at low density until confluence. They are then contacted or not with the compound of the invention for 24 hours. At this stage, each set of cultures (with or without the tested compounds) is divided into 2 lots. A first batch (not stressed) is evaluated directly for its concentration of intracellular peroxides (using the probe DCFH-DA). Simultaneously, the other batch (stressed) undergoes a second stress by hydrogen peroxide (weaker than the first) just before being evaluated in the same way regarding the concentration of intracellular peroxides.
The amount of fluorescence measured with this probe is directly proportional to the amount of peroxides present in the cells.

human dermal fibroblasts = assay: Senescence associated β-galactosidase activity in fibroblasts after oxidising stress (FDG fluorimetry); assay type: cell-based; conditions: 120 ppm; positive control
Experimental: Principle: Proliferative human dermal fibroblasts were contacted or not with the GGP for 72 hours in a growth medium. After this first incubation, the cells were subjected for 5 days to an oxidative stress daily, one hour each, in a basic medium, common to all cultures. This stress is known to create a SIPS and to induce a strong increase in β-galactosidase activity in the stressed culture compared to an unstressed culture. Between two stress cells are returned to the growth medium with or without the substance tested. After the fifth stress, β-galactosidase activity is evaluated.
Evaluation of β-galactosidase activity is done after fixing the layers. They are put in contact with a substrate of β-galactosidase nonfluorescent FDG (fluorescein di-β-galactopyranoside), which will release a fluorescent compound upon hydrolysis by β-galactosidase. The emitted fluorescence is quantified in a fluorometer. It will increase with the amount of senescent cells present in culture. The relative activity of β-galactosidase thus found is 2974+/−957 UFA/million cells in a proliferative culture and increases by a factor 5 (p<0.01) in a culture little to not proliferative.

[1] = ORAC test (Oxygen-Radical Absorbance Capacity): fluorescein degradation by peroxyl radicals; assay type: biochemical; conditions: positive control, 10μ
Description: Principle: the ORAC test (“Oxygen-Radical Absorbance Capacity”) measures degradation by the oxidative way of a fluorescent molecule (fluorescein). Degradation of fluorescein by peroxyl radicals generated by AAPH (2,2′-azobis (2-amidinopropane) dichloride) induces a decrease in fluorescence measured by a spectrofluorometer during a degradation kinetic.
An antioxidant protects this fluorescein against this radical degradation. The decrease in fluorescence will be smaller and slower in the presence of the antioxidant than in its absence. The comparison between the parameters of the two kinetics makes it possible to calculate a percentage of protection against free radical degradation.

presenescent fibroblasts = assay: Mitochondrial membrane potential of presenescent fibroblasts (dye ratio λ520/λ590); assay type: cell-based; conditions: 120 ppm
Description: It is possible to measure the membrane potential through a specific membrane dye. Depending on the level of the membrane potential, this dye is rather present as monomer (emission fluorescence at 520 nm) or rather in the multimetric form (fluorescence emission at 590 nm). High membrane potential promotes a multimetric form.
The ratio λ520/λ590 varies inversely with the membrane potential. The lower the ratio is, the higher the membrane potential is. The increase in the ratio thus reflects a decrease in membrane potential. The ratio λ520/λ590 for young and proliferating cells is 2.97+/−0.17.
[…] After this period, the membrane potential of half of the cultures was measured.
The other half of the cultures underwent an oxidative stress (hydrogen peroxide) before measuring their membrane potential.

hyaluronic acid = assay: Hyaluronic acid synthesis in human fibroblasts; assay type: cell-based; conditions: 10^−6%; positive control
Experimental: Principle: Human dermal fibroblasts were grown in plate for 24 hours. The cells are then placed in contact or not with GGP for 24 hours. Culture supernatants were collected and assayed for the amount of hyaluronic acid (HA) is then divided by the number of cells present on the layer. TGF-β1 is used as a positive control.

collagen I = assay: Collagen I synthesis in presenescent fibroblasts (immunofluorescence, image analysis); assay type: cell-based, human; conditions: 10^−6%; positive control
Experimental: Principle: The collagen I synthesis was monitored in pre-senescent human dermal fibroblasts. These cells were cultured for 11 days with the GGP in a growth medium. Following this incubation, the cell layers were fixed and labeled by immunofluorescence, to visualize the network of collagen I and to quantify by image analysis on photographs. In parallel, quantification was performed on proliferating cells.

[2] = SIPS fibroblasts subjected to a second oxidant stress

## OC[C@H]1O[C@@H](Oc2ccc(O)cc2)[C@H](O)[C@@H](O)[C@@H]1O [Arbutine, reference compound]
Human melanocytes
  Change (%) of melanin content vs control: −40%
tyrosinase
  Change (%) of tyrosinase activity vs control: −33%

## Cc1c(C)c2c(c(C)c1O)CCC(C)(C(=O)O)O2 (stereo not drawn) [Trolox, reference compound]
Fibroblasts (FHN); [2]
  % Change/Control of endogen peroxides: −85%; p < 0.01
  Endogen peroxides: 158 +/− 7 UFA/million of cells
Fibroblasts (FHN); after SIPS, not stressed again
  % Change/Control of endogen peroxides: −43%; p < 0.01
  Endogen peroxides: 57.5 +/− 3.8 UFA/million of cells
Human dermal fibroblasts
  Change with regard to control (β-galactosidase): Positive control: Trolox 120 ppm = −45% (p < 0.05)
[1]
  % of protection: Positive control = Trolox 10μ = 94% (p < 0.01)
Presenescent fibroblasts; no stress
  % of protection of the respiration potential: +44%; nsd
Presenescent fibroblasts; one week, no stress
  ΔΨ loss with regard to non stressed young cells: 0.80 +/− 0.52
Presenescent fibroblasts; with oxidative stress
  Improvement of the respiration potential: +43%; p < 0.05
Presenescent fibroblasts; with oxidative stress (hydrogen peroxide)
  ΔΨ loss with regard to non stressed young cells: 3.18 +/− 1.16
Presenescent fibroblasts; with oxidative stress, control −100%
  Change with regard to non stressed young cells: −57%

## TGF-β: TGF-β1 is used as a positive control [reference compound]
Hyaluronic acid
  % of change of hyaluronic acid vs control: Positive control: TGF-β1 à 10^−6%: +206% (p < 0.01)
Collagen I
  collagen I synthesis, factor vs control: Positive control: TGF-β at 10^−6%: ×8.3 times
